Data: ChEMBL document CHEMBL3046394, “Conyza canadensis (L.) Cronquist response to pre-plant application of residual herbicides in cotton (Gossypium hirsutum L.)” (Crop Prot, 2009)

Legend:
Erigeron canadensis [1] = experiment: Herbicidal activity against glyphosate-resistant Conyza canadensis (horseweed) assessed as residual control at 1400 g a.i./ha treated during autumn and spring measured 6 weeks after treatment; type: functional
Gossypium hirsutum = experiment: Toxicity in Gossypium hirsutum (cotton) assessed as formation of injury to cotton; type: organism-based; details: in vivo
Erigeron canadensis [2] = experiment: Herbicidal activity against glyphosate-resistant Conyza canadensis (horseweed) assessed as residual control at 1400 g a.i./ha treated during autumn and spring measured 8 weeks after treatment; type: functional
Erigeron canadensis [3] = experiment: Herbicidal activity against glyphosate-resistant Conyza canadensis (horseweed) assessed as residual control at 1400 g a.i./ha treated during autumn and spring measured 4 weeks after treatment; type: functional
Erigeron canadensis [4] = experiment: Herbicidal activity against glyphosate-resistant Conyza canadensis (horseweed) assessed as residual control at 1120 g a.i./ha treated during autumn and spring measured 6 weeks after treatment; type: functional
Erigeron canadensis [5] = experiment: Herbicidal activity against glyphosate-resistant Conyza canadensis (horseweed) assessed as residual control at 1120 g a.i./ha treated during autumn and spring measured 8 weeks after treatment; type: functional
Erigeron canadensis [6] = experiment: Herbicidal activity against glyphosate-resistant Conyza canadensis (horseweed) assessed as residual control at 1120 g a.i./ha treated during autumn and spring measured 4 weeks after treatment; type: functional
Erigeron canadensis [7] = experiment: Herbicidal activity against glyphosate-resistant Conyza canadensis (horseweed) assessed as residual control at 71 g a.i./ha treated during autumn and spring measured 8 weeks after treatment; type: functional
Erigeron canadensis [8] = experiment: Herbicidal activity against glyphosate-resistant Conyza canadensis (horseweed) assessed as residual control at 71 g a.i./ha treated during autumn and spring measured 6 weeks after treatment; type: functional
Erigeron canadensis [9] = experiment: Herbicidal activity against glyphosate-resistant Conyza canadensis (horseweed) assessed as residual control at 71 g a.i./ha treated during autumn and spring measured 4 weeks after treatment; type: functional
Erigeron canadensis [10] = experiment: Herbicidal activity against glyphosate-resistant Conyza canadensis (horseweed) assessed as residual control at 47 g a.i./ha treated during autumn and spring measured 4 weeks after treatment; type: functional
Erigeron canadensis [11] = experiment: Herbicidal activity against glyphosate-resistant Conyza canadensis (horseweed) assessed as residual control at 47 g a.i./ha treated during autumn and spring measured 8 weeks after treatment; type: functional
Erigeron canadensis [12] = experiment: Herbicidal activity against glyphosate-resistant Conyza canadensis (horseweed) assessed as residual control at 47 g a.i./ha treated during autumn and spring measured 6 weeks after treatment; type: functional
[13] = Half life of the compound
[14] = Half life of the compound under anaerobic condition
[15] = Half life of the compound under aerobic condition
Erigeron canadensis [16] = experiment: Herbicidal activity against glyphosate-resistant Conyza canadensis (horseweed) assessed as residual control at 1680 g a.i./ha treated during autumn and spring measured 4 weeks after treatment; type: functional
Erigeron canadensis [17] = experiment: Herbicidal activity against glyphosate-resistant Conyza canadensis (horseweed) assessed as residual control at 1680 g a.i./ha treated during autumn and spring measured 8 weeks after treatment; type: functional
Erigeron canadensis [18] = experiment: Herbicidal activity against glyphosate-resistant Conyza canadensis (horseweed) assessed as residual control at 1680 g a.i./ha treated during autumn and spring measured 6 weeks after treatment; type: functional
Erigeron canadensis [19] = experiment: Herbicidal activity against glyphosate-resistant Conyza canadensis (horseweed) assessed as residual control at 420 g a.i./ha treated during autumn and spring measured 4 weeks after treatment; type: functional
Erigeron canadensis [20] = experiment: Herbicidal activity against glyphosate-resistant Conyza canadensis (horseweed) assessed as residual control at 420 g a.i./ha treated during autumn and spring measured 8 weeks after treatment; type: functional
Erigeron canadensis [21] = experiment: Herbicidal activity against glyphosate-resistant Conyza canadensis (horseweed) assessed as residual control at 420 g a.i./ha treated during autumn and spring measured 6 weeks after treatment; type: functional

CN(C)C(=O)Nc1cccc(C(F)(F)F)c1 [FLUOMETURON]
Activity (Erigeron canadensis [1]): 99% | Activity (Gossypium hirsutum): Non-toxic | Activity (Erigeron canadensis [2]): 80% | Activity (Erigeron canadensis [3]): 98%

CSc1nc(NC(C)C)nc(NC(C)C)n1 [PROMETRYN]
Activity (Erigeron canadensis [4]): 98% | Activity (Erigeron canadensis [5]): 20% | Activity (Gossypium hirsutum): Non-toxic | Activity (Erigeron canadensis [6]): 100%

C#CCN1C(=O)COc2cc(F)c(N3C(=O)C4=C(CCCC4)C3=O)cc21 [FLUMIOXAZIN]
Activity (Erigeron canadensis [7]): 35% | Activity (Erigeron canadensis [8]): 99% | Activity (Gossypium hirsutum): Non-toxic | Activity (Erigeron canadensis [9]): 100%

CN(C)C(=O)Nc1ccc(Cl)c(Cl)c1 [DCMU]
Activity (Erigeron canadensis [4]): 99% | Activity (Erigeron canadensis [5]): 25% | Activity (Gossypium hirsutum): Non-toxic | Activity (Erigeron canadensis [6]): 100%

COc1cc(OC)nc(Sc2cccc(Cl)c2C(=O)O)n1 [PYRITHIOBAC]
Activity (Erigeron canadensis [10]): 60% | Activity (Erigeron canadensis [11]): 37% | Activity (Gossypium hirsutum): Non-toxic | Activity (Erigeron canadensis [12]): 72%

COc1c(Cl)ccc(Cl)c1C(=O)O [3,6 DICHLOROMETHOXYBENZOIC ACID]
half-life [13]: 7 days | half-life [14]: 58 days | half-life [15]: 31 days

CNc1cnn(-c2cccc(C(F)(F)F)c2)c(=O)c1Cl [NORFLURAZONE]
Activity (Erigeron canadensis [16]): 100% | Activity (Erigeron canadensis [17]): 100% | Activity (Erigeron canadensis [18]): 100% | Activity (Gossypium hirsutum): Non-toxic

CCOc1cc(Oc2ccc(C(F)(F)F)cc2Cl)ccc1[N+](=O)[O-] [OXYFLUORFEN]
Activity (Erigeron canadensis [19]): 100% | Activity (Gossypium hirsutum): Non-toxic | Activity (Erigeron canadensis [20]): 95% | Activity (Erigeron canadensis [21]): 99%
